Values of other authors, collected in US20050042196A1, “Antimicrobial phenol containing cyanoacrylate compositions” (priority 2003, published 2005).

Settings: aqueous

In the case of `[O-][Cl+3]([O-])([O-])O` [perchloric acid], the pKa is listed as −5.
